Measured values from patent US10189791B2, “Pyridyl analogs of 1-(2-cyano-3,12-dioxooleana-1,9(11)dien-28-oyl) imidazole” (Trustees of Dartmouth College, priority 2014, dated 2019).
Read-outs that look alike come from different tables or passages of the source.

What was measured:
[1] = system: RA W264.7 macrophage-like cells; assay: Inhibition of IFNγ-stimulated nitric oxide release (Griess reaction); assay type: cell-based; conditions: 10 ng/ml IFNγ, 24 hour exposure, read-out: IC50 (nM) Mean ± SE, NO production
Protocol: Because oxidative and inflammatory stress contribute to carcinogenesis (Albini & Sporn (2007) Nature Rev. Cancer 7:139-147), it was determined whether the pyridine analogues could block de novo synthesis of inducible nitric oxide synthase (iNOS), a critical enzyme involved in the inflammatory response (Kroncke, et al. (1998) Clin. Exp. Immunol. 113:147-156; Zamora, et al. (2000) Mol. Med. 6:347-373). Nitric oxide release was determined in RA W264.7 macrophage-like cells, after stimulation with 10 ng/ml interferon-γ (IFNγ) and a 24 hour-exposure to each compound at 0.625, 1.3, 2.5, 5, 10 and 20 nM. NO release was measured by Griess reaction and compared to CDDO-Im, which is a potent suppressor of iNOS (Place, et al. (2003) Clin. Cancer Res. […]:2798-2806).

[2] = Tissue distribution after single gavage in C57BL/6 mice (LC-MS); assay type: in vivo; conditions: for Compound Concentration Mean ± SE, Kidney / Compound Concentration Mean ± SE, Liver / Compound Concentration Mean ± SE, Lungs / Compound Concentration Mean ± SE, Pancreas / Compound Concentration Mean ± SE, Plasma / Compound Concentration Mean ± SE, Whole Blood: six hours after single gavage with 1 μmole; for bioavailability / drug levels in organs (in words): compared with CDDO-Im 1
Protocol: To determine concentrations of the CDDO-Im analogs in various organs, an in vivo evaluation was conducted in C57BL/6 mice. Six hours after a single gavage with 1 μmole of compound, the mice were sacrificed and the tissues were collected.

[3] = system: U937 leukemia cell line; assay: U937 monocytic differentiation assay (CD11b surface marker, flow cytometry); assay type: cell-based; conditions: for activity to induce differentiation of U937 cells (in words): 4 days
Protocol: CDDO-Im 1 is a potent inducer of differentiation in U937 cells (Place, et al. (2003) Clin. Cancer Res. 9:2798-2806). Therefore, the activity of the CDDO-Im analogs was evaluated using the U937 leukemia cell line. CD11b (also known as Mac-1α or CR3 complement receptor) was used as a surface marker of monocytic differentiation, and its expression was measured by flow cytometry after 4 days of treatment with CDDO-Phenyl-Im 2, CDDO-3P-Im 3, CDDO-2P-Im 4, CDDO-4P-Im 5, CDDO-Im 1 (as positive control) or vehicle (DMSO). […] Indeed, the highest level of differentiation was obtained using 100 nM of CDDO-2P-Im (approximately a 4-fold induction of CD11b).

[4] = system: U937 cells; assay: Apoptosis in U937 cells (annexin V staining); assay type: cell-based; conditions: U937 cells treated for 48 hours
[5] = system: NQO1; assay: Induction of NQO1 mRNA in mouse liver, kidney and lung (real-time PCR); assay type: in vivo, mice
Source text: (§1) FIG. 2A and FIG. 2B show the induction of cytoprotective enzyme expression in mouse liver, kidney and lung. CB57BL/6 mice were gavaged with 1 μmole of each triterpenoid. Six hours later, organs were harvested, RNA was extracted, and mRNA levels for HO-1 (FIG. 2A) and NQO1 (FIG. 2B) were quantified by real-time PCR analysis. Results are presented as the fold induction for each compound compared to the vehicle (DMSO) control. Data are presented as mean±SE of six mice per group.
Because HO-1 is regulated by transcription factors in addition to Nrf2 (Alam, et al. (1999) J. Biol. Chem. 274:26071-8; Kensler, et al. (2007) Ann. Rev. Pharmacol. Toxicol. 47:89-116), induction of the prototypical Nrf2 target gene NQO1 was also examined.

[6] = Stability in human plasma at 37° C. (LC-MS); assay type: in vitro ADME; conditions: for stability in human plasma (in words): up to 6 hours; for percent of starting material remaining in plasma: after a 1-hour incubation
Protocol: Since CDDO-Im is not stable in human plasma, the stability of the CDDO-Im analogs was determined. Compounds were incubated in human plasma at 37° C. for up to 6 hours. The compounds were extracted with acetonitrile at six different time points (0, 0.5, 1, 2, 4 and 6 hours), centrifuged, and the percent of starting material remaining in the supernatant was measured by liquid chromatography-mass spectrometry (LC-MS). […] The concentrations then decreased gradually over 6 hours. […] Unexpectedly, the CDDO-Im analogs are metabolized differently from CCDO-Im, as no traces of CDDO were detected with any of the other compounds at any time point. Instead, an oxidized derivative was detected on the chromatogram, in the form of an adduct on the molecule of +16 in MW (N-oxide).

[7] = system: HO-1; assay: Induction of HO-1 mRNA in mouse liver, kidney and lung (real-time PCR); assay type: in vivo, mice; conditions: for HO-1 level relative to CDDO-Im / HO-1 mRNA fold induction compared to the vehicle control: liver; for HO-1 mRNA fold induction compared to the vehicle control: six hours after gavage with 1 μmole; for HO-1 induction (in words): kidney
Source text: as §1
Synthetic triterpenoids such as CDDO-Im strongly activate the Nrf2/ARE pathway; Nrf2 is a transcription factor that regulates numerous cytoprotective and anti-inflammatory genes (Liby, et al. (2005) Cancer Res. 65:4789-98; Yates, et al. (2007) Mol. Cancer Therapeut. 6:154-62). Therefore, the ability of the new pyridine compounds to induce transcription of the Nrf2 target genes HO-1 and NQ01 in vivo was assessed. […] In the liver, CDDO-3P-Im and CDDO-2P-Im induced high levels of HO-1, which were about 3 times more elevated than with CDDO-Im (13.4- and 15.2-fold, respectively vs. 4.9-fold for CDDO-Im). […] The results obtained in lungs were, on the other hand, unexpected.

[8] = 30 nM, 4 days of treatment, U937 cells
[9] = six hours after gavage with 1 μmole
[10] = six hours after gavage with 1 μmole, read-out: concentration in the pancreas
[11] = 30 nM, compared with CDDO-Im and CDDO-3P-Im

Compound | Compound Concentration Mean ± SE, Kidney [2] [µmol/kg] | Compound Concentration Mean ± SE, Liver [2] [µmol/kg] | Compound Concentration Mean ± SE, Lungs [2] [µmol/kg] | Compound Concentration Mean ± SE, Pancreas [2] [µmol/kg] | Compound Concentration Mean ± SE, Plasma [2] [µmol/kg] | Compound Concentration Mean ± SE, Whole Blood [2] [µmol/kg] | stability in human plasma (in words) ([6]; 37° C.) | IC50 [1] [nM] | bioavailability / drug levels in organs (in words) [2] | concentration at 6 h [2, 10] [nM] | concentration in the liver [2, 9] [nM] | induction of CD11b expression compared to the DMSO-treated cells [3, 8] [fold] | cell death in the differentiation assay ([3]; 100 nM) | annexin V staining, a marker of early apoptosis [4] | HO-1 level relative to CDDO-Im ([7]; six hours after gavage) | HO-1 mRNA fold induction compared to the vehicle control [7] [fold] | drug levels in the lungs [2, 9] | HO-1 induction (in words) [7] | activity to induce differentiation of U937 cells (in words) [3, 11] | activity to induce differentiation of U937 cells (in words) ([3]; 100 nM) | also measured
CC1(C)CCC2(C(=O)n3ccnc3)CCC3(C)C(C(=O)C=C4C5(C)C=C(C#N)C(=O)C(C)(C)C5CCC43C)C2C1 (stereo not drawn) [CDDO-Im 1, 1-(2-cyano-3,12-dioxooleana-1,9(11)-dien-28-oyl) imidazole, reference compound] | 0.24 ± 0.08 | 1.7 ± 0.32 | 0.19 ± 0.05 | 0.31 ± 0.09 | 0.06 ± 0.02 | 0.03 ± 0.01 | rapidly metabolized |  |  |  |  | ~3 | induced cell death | increased annexin V staining |  |  |  |  |  |  | IC50 ([1]; Mus musculus, RAW264.7): 2 nM; concentration at 6 h ([2]; C57BL/6, mouse, liver, oral, six hours after gavage with 1 μmole, read-out: concentration in the liver): 1700 nM; concentration at 6 h ([2]; C57BL/6, mouse, lung, oral, six hours after gavage with 1 μmole, read-out: drug levels in the lungs): 200 nM; concentration at 6 h ([2]; C57BL/6, mouse, pancreas, oral, six hours after gavage with 1 μmole, read-out: concentration in the pancreas): ~300 nM; rank of NQO1 mRNA induction (in words) ([5]; liver and kidney): the most potent compound; transformation product in human plasma (in words) ([6]; LC-MS, all time points): essentially converted to its parent molecule; percent of compound lost in human plasma ([6]; within 30 minutes, 37° C.): more than 88%; percent of compound lost in human plasma ([6]; within the next 5 hours (6 hour incubation), 37° C.): 98%
CC1(C)CCC2(C(=O)n3cnc(-c4cccnc4)c3)CCC3(C)C(C(=O)C=C4C5(C)C=C(C#N)C(=O)C(C)(C)C5CCC43C)C2C1 (stereo not drawn) [CDDO-3P-Im 3] | 1.47 ± 0.24 | 5.9 ± 0.57 | 2.49 ± 0.44 | 2.52 ± 0.24 | 0.15 ± 0.04 | 0.16 ± 0.02 | more stable than CDDO-Im | 4.3 | better than for CDDO-Im 1 | 2500 |  | ~3 | induced cell death | increased annexin V staining | about 3 times | 13.4 | greater than 2.5 μM |  |  |  | 
CC1(C)CCC2(C(=O)n3cnc(-c4ccccn4)c3)CCC3(C)C(C(=O)C=C4C5(C)C=C(C#N)C(=O)C(C)(C)C5CCC43C)C2C1 (stereo not drawn) [CDDO-2P-Im 4] | 3.70 ± 0.55 | 14.9 ± 2.58 | 2.63 ± 0.41 | 3.55 ± 0.39 | 0.52 ± 0.02 | 0.53 ± 0.02 | the most stable analog | 5.8 ± 1.1 | better than for CDDO-Im 1 | 3500 | 12000 to 15000 |  |  |  | about 3 times | 15.2 | greater than 2.5 μM |  | less active | enhanced the activity | induction of CD11b ([3]; 100 nM, 4 days of treatment, U937 cells): ~4 fold; percent left in plasma ([6]; after 4 hours, 37° C.): more than 50%; percent of starting material remaining in plasma ([6]; 37° C.): more than 85%

More lines, main results first:

Compound Concentration Mean ± SE, Kidney [2] [µmol/kg] | Compound Concentration Mean ± SE, Liver [2] [µmol/kg] | Compound Concentration Mean ± SE, Lungs [2] [µmol/kg] | Compound Concentration Mean ± SE, Pancreas [2] [µmol/kg] | Compound Concentration Mean ± SE, Plasma [2] [µmol/kg] | Compound Concentration Mean ± SE, Whole Blood [2] [µmol/kg] | stability in human plasma (in words) ([6]; 37° C.) | IC50 [1] [nM] | bioavailability / drug levels in organs (in words) [2] | concentration at 6 h [2, 10] [nM] | concentration in the liver [2, 9] [nM] | Compound | induction of CD11b expression compared to the DMSO-treated cells [3, 8] [fold] | cell death in the differentiation assay ([3]; 100 nM) | annexin V staining, a marker of early apoptosis [4] | HO-1 level relative to CDDO-Im ([7]; six hours after gavage) | HO-1 mRNA fold induction compared to the vehicle control [7] [fold] | drug levels in the lungs [2, 9] | HO-1 induction (in words) [7] | activity to induce differentiation of U937 cells (in words) [3, 11] | activity to induce differentiation of U937 cells (in words) ([3]; 100 nM) | also measured
5.79 ± 0.25 | 12.2 ± 1.27 | 1.28 ± 0.17 | 1.97 ± 0.19 | 0.12 ± 0.01 | 0.35 ± 0.03 | more stable than CDDO-Im | 14.7 | better than for CDDO-Im 1 | 2000 | 12000 to 15000 | CC1(C)CCC2(C(=O)n3cnc(-c4ccccc4)c3)CCC3(C)C(C(=O)C=C4C5(C)C=C(C#N)C(=O)C(C)(C)C5CCC43C)C2C1 (stereo not drawn) [CDDO-Phenyl-Im 2] |  |  |  |  |  |  | markedly less potent | less active |  | concentration in kidneys [2, 9]: 5800 nM; NQO1 mRNA induction (in words) ([5]; liver, compared with CDDO-Im): markedly less potent than CDDO-Im
0.35 ± 0.06 | 2.8 ± 0.47 | 0.17 ± 0.05 | 0.30 ± 0.04 | 0.03 ± 0.01 | 0.04 ± 0.1 | more stable than CDDO-Im | 9 ± 0.6 |  |  |  | CC1(C)CCC2(C(=O)n3cnc(-c4ccncc4)c3)CCC3(C)C(C(=O)C=C4C5(C)C=C(C#N)C(=O)C(C)(C)C5CCC43C)C2C1 (stereo not drawn) [CDDO-4P-Im 5] |  |  |  |  |  |  | less potent than CDDO-Im | less active | enhanced the activity | HO-1 transcript level relative to CDDO-Im or any of the other compounds ([7]; lungs, six hours after gavage): about 3 times; percent of starting material remaining in plasma ([6]; 37° C.): 42%
